The source made the active and inactive calls. The calls are words filed in the database; no cut-off is given here.
Legend:
LX-2 [1] = test: Antifibrotic activity against TGFbeta-1 induced human LX-2 cells assessed as inhibition of COL1A1 mRNA expression at 20 uM incubated for 24 hrs by qRT-PCR analysis relative to control; format: functional; parameters: scale not given: the % may be the effect or the level left
LX-2 [2] = test: Antifibrotic activity against TGFbeta-1 induced human LX-2 cells assessed as inhibition of TGFB1 mRNA expression at 20 uM incubated for 24 hrs by qRT-PCR analysis relative to control; format: functional; parameters: scale not given: the % may be the effect or the level left
LX-2 [3] = test: Antifibrotic activity against TGFbeta-1 induced human LX-2 cells assessed as inhibition of ACTA2 mRNA expression at 20 uM incubated for 24 hrs by qRT-PCR analysis relative to control; format: functional; parameters: scale not given: the % may be the effect or the level left
LX-2 [4] = test: Antifibrotic activity against TGFbeta-1 induced human LX-2 cells assessed as inhibition of COL1A1 mRNA expression at 1 uM incubated for 24 hrs by qRT-PCR analysis relative to control; format: functional; parameters: scale not given: the % may be the effect or the level left
LX-2 [5] = test: Antifibrotic activity against TGFbeta-1 induced human LX-2 cells assessed as inhibition of COL1A1 mRNA expression at 5 uM incubated for 24 hrs by qRT-PCR analysis relative to control; format: functional; parameters: scale not given: the % may be the effect or the level left
LX-2 [6] = test: Antifibrotic activity against TGFbeta-1 induced human LX-2 cells assessed as inhibition of TGFB1 mRNA expression at 1 uM incubated for 24 hrs by qRT-PCR analysis relative to control; format: functional; parameters: scale not given: the % may be the effect or the level left
LX-2 [7] = test: Antifibrotic activity against TGFbeta-1 induced human LX-2 cells assessed as inhibition of TGFB1 mRNA expression at 5 uM incubated for 24 hrs by qRT-PCR analysis relative to control; format: functional; parameters: scale not given: the % may be the effect or the level left
LX-2 [8] = test: Antifibrotic activity against TGFbeta-1 induced human LX-2 cells assessed as inhibition of ACTA2 mRNA expression at 1 uM incubated for 24 hrs by qRT-PCR analysis relative to control; format: functional; parameters: scale not given: the % may be the effect or the level left
LX-2 [9] = test: Antifibrotic activity against TGFbeta-1 induced human LX-2 cells assessed as inhibition of ACTA2 mRNA expression at 5 uM incubated for 24 hrs by qRT-PCR analysis relative to control; format: functional; parameters: scale not given: the % may be the effect or the level left
LX-2 [10] = test: Cytotoxicity against human LX-2 cells assessed as reduction in cell viability at 200 uM incubated for 24 hrs by CCK-8 assay; format: toxicity, cell-based; conditions: lx-2, 24 h
NIH3T3 [11] = test: Antifibrotic activity against TGFbeta-1 induced mouse NIH3T3 cells assessed as decrease in COL1A1 mRNA expression at 1 uM incubated for 24 hrs by qRT-PCR analysis relative to control; format: functional; parameters: scale not given: the % may be the effect or the level left
NIH3T3 [12] = test: Antifibrotic activity against TGFbeta-1 induced mouse NIH3T3 cells assessed as decrease in COL1A1 mRNA expression at 5 uM incubated for 24 hrs by qRT-PCR analysis relative to control; format: functional; parameters: scale not given: the % may be the effect or the level left
NIH3T3 [13] = test: Antifibrotic activity against TGFbeta-1 induced mouse NIH3T3 cells assessed as decrease in Acta2 mRNA expression at 1 uM incubated for 24 hrs by qRT-PCR analysis relative to control; format: functional; parameters: scale not given: the % may be the effect or the level left
NIH3T3 [14] = test: Antifibrotic activity against TGFbeta-1 induced mouse NIH3T3 cells assessed as decrease in Acta2 mRNA expression at 5 uM incubated for 24 hrs by qRT-PCR analysis relative to control; format: functional; parameters: scale not given: the % may be the effect or the level left
[15] = target: T1, Polyunsaturated fatty acid 5-lipoxygenase (Homo sapiens) (UniProt P09917); test: Inhibition of human 5-LO at 2 uM incubated for 15 mins in presence of ATP by measuring fluorescence intensity relative to control
T1 sequence (whole entry): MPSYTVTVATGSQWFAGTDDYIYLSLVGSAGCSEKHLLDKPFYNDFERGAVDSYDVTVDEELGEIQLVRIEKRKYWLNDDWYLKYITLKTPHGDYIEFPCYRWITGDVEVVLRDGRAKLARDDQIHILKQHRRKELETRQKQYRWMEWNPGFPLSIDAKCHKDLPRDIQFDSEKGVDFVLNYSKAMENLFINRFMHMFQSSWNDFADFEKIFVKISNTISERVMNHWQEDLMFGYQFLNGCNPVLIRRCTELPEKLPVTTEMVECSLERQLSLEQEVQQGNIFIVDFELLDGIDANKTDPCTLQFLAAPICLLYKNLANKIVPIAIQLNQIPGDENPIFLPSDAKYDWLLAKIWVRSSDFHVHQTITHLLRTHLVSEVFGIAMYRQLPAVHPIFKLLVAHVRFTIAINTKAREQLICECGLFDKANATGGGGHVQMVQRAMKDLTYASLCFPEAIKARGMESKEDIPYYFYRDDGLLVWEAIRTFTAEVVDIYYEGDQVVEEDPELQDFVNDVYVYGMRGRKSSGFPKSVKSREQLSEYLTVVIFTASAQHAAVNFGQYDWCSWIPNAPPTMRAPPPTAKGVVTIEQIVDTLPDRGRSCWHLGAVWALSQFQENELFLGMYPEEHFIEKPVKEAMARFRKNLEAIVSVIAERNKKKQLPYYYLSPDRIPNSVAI

LX-2 [16] = test: Antifibrotic activity against TGFbeta-1 induced human LX-2 cells assessed as inhibition of COL1A1 mRNA expression incubated for 24 hrs by qRT-PCR analysis; format: functional, cell-based; conditions: dose 1-5 µM
LX-2 [17] = test: Antifibrotic activity against TGFbeta-1 induced human LX-2 cells assessed as inhibition of TGFB1 mRNA expression incubated for 24 hrs by qRT-PCR analysis; format: functional, cell-based; conditions: dose 1-5 µM
LX-2 [18] = test: Antifibrotic activity against TGFbeta-1 induced human LX-2 cells assessed as inhibition of ACTA2 mRNA expression incubated for 24 hrs by qRT-PCR analysis; format: functional, cell-based; conditions: dose 1-5 µM
Escherichia coli [19] = test: Antibacterial activity against Escherichia coli ATCC 25922 assessed as bacterial growth inhibition incubated for 16 hrs in presence of Muller-Hinton medium by broth microdilution method; format: functional, organism-based
Escherichia coli [20] = test: Antibacterial activity against Escherichia coli ATCC 35218 assessed as bacterial growth inhibition incubated for 16 hrs in presence of Muller-Hinton medium by broth microdilution method; format: functional, organism-based
Pseudomonas aeruginosa [21] = test: Antibacterial activity against Pseudomonas aeruginosa ATCC 27853 assessed as bacterial growth inhibition incubated for 16 hrs in presence of Muller-Hinton medium by broth microdilution method; format: functional, organism-based
Pseudomonas aeruginosa [22] = test: Antibacterial activity against Pseudomonas aeruginosa 2774 assessed as bacterial growth inhibition incubated for 16 hrs in presence of Muller-Hinton medium by broth microdilution method; format: functional, organism-based
Klebsiella pneumoniae [23] = test: Antibacterial activity against Klebsiella pneumoniae ATCC 10031 assessed as bacterial growth inhibition incubated for 16 hrs in presence of Muller-Hinton medium by broth microdilution method; format: functional, organism-based
Klebsiella pneumoniae [24] = test: Antibacterial activity against Klebsiella pneumoniae ATCC 700603 assessed as bacterial growth inhibition incubated for 16 hrs in presence of Muller-Hinton medium by broth microdilution method; format: functional, organism-based
Acinetobacter baumannii [25] = test: Antibacterial activity against Acinetobacter baumannii ATCC 19606 assessed as bacterial growth inhibition incubated for 16 hrs in presence of Muller-Hinton medium by broth microdilution method; format: functional, organism-based
Acinetobacter baumannii [26] = test: Antibacterial activity against Acinetobacter baumannii 2799 assessed as bacterial growth inhibition incubated for 16 hrs in presence of Muller-Hinton medium by broth microdilution method; format: functional, organism-based
Enterococcus faecium = test: Antibacterial activity against Enterococcus faecium 310682 (VRE) assessed as bacterial growth inhibition incubated for 16 hrs in presence of brain heart infusion medium by broth microdilution method; format: functional, organism-based
Enterococcus faecalis = test: Antibacterial activity against Enterococcus faecalis ATCC 33186 assessed as bacterial growth inhibition incubated for 16 hrs in presence of brain heart infusion medium by broth microdilution method; format: functional, organism-based
Staphylococcus aureus [27] = test: Antibacterial activity against Staphylococcus aureus ATCC 33591 assessed as bacterial growth inhibition incubated for 16 hrs in presence of Muller-Hinton medium by broth microdilution method; format: functional, organism-based
Staphylococcus aureus [28] = test: Antibacterial activity against Staphylococcus aureus ATCC 29213 assessed as bacterial growth inhibition incubated for 16 hrs in presence of Muller-Hinton medium by broth microdilution method; format: functional, organism-based
Bacillus subtilis = test: Antibacterial activity against Bacillus subtilis CPCC 100029 assessed as bacterial growth inhibition incubated for 16 hrs in presence of Muller-Hinton medium by broth microdilution method; format: functional, organism-based

inhibition [15]	SMILES	Activity (LX-2 [4])	Activity (LX-2 [5])	Activity (LX-2 [6])	Activity (LX-2 [7])	Activity (LX-2 [8])	Activity (LX-2 [9])	Activity (LX-2 [10])	Activity (NIH3T3 [11])	Activity (NIH3T3 [12])	Activity (NIH3T3 [13])	Activity (NIH3T3 [14])	Activity (LX-2 [16])	Activity (LX-2 [17])	Activity (LX-2 [18])	Activity (Escherichia coli [19])	Activity (Escherichia coli [20])	Activity (Pseudomonas aeruginosa [21])	Activity (Pseudomonas aeruginosa [22])	Activity (Klebsiella pneumoniae [23])	further results
–	O=C(O[C@@H]1Cc2c(O)cc(O)cc2O[C@@H]1c1cc(O)c(O)c(O)c1)c1cc(O)c(O)c(O)c1 [EPIGALOCATECHIN GALLATE]	–	–	–	–	–	–	–	–	–	–	–	–	–	–	–	–	–	–	–	Activity (LX-2 [1]): 89%; Activity (LX-2 [2]): 88%; Activity (LX-2 [3]): 62%
67%	O=C(NCCCC[C@@H](CO)NC(=O)c1cccc(O)c1O)c1cccc(O)c1O	39%	82%	60%	74%	87%	136%	Non-toxic	9%	78%	70%	108%	Dose-dependent-effect	Dose-dependent-effect	Dose-dependent-effect	inactive	inactive	inactive	inactive	inactive	Activity (Klebsiella pneumoniae [24]): inactive; Activity (Acinetobacter baumannii [25]): inactive; Activity (Acinetobacter baumannii [26]): inactive; Activity (Enterococcus faecium): inactive; Activity (Enterococcus faecalis): inactive; Activity (Staphylococcus aureus [27]): inactive; Activity (Staphylococcus aureus [28]): inactive; Activity (Bacillus subtilis): inactive
78%	CC(=O)OC[C@H](CCCCNC(=O)c1cccc(O)c1O)NC(=O)c1cccc(O)c1O	35%	81%	36%	70%	62%	132%	Non-toxic	60%	70%	95%	129%	Dose-dependent-effect	Dose-dependent-effect	Dose-dependent-effect	inactive	inactive	inactive	inactive	inactive	Activity (Klebsiella pneumoniae [24]): inactive; Activity (Acinetobacter baumannii [25]): inactive; Activity (Acinetobacter baumannii [26]): inactive; Activity (Enterococcus faecium): inactive; Activity (Enterococcus faecalis): inactive; Activity (Staphylococcus aureus [27]): inactive; Activity (Staphylococcus aureus [28]): inactive; Activity (Bacillus subtilis): inactive
80%	CC(C)C(=O)OC[C@H](CCCCNC(=O)c1cccc(O)c1O)NC(=O)c1cccc(O)c1O	49%	93%	65%	72%	92%	138%	Non-toxic	44%	79%	75%	122%	Dose-dependent-effect	Dose-dependent-effect	Dose-dependent-effect	inactive	inactive	inactive	inactive	inactive	Activity (Klebsiella pneumoniae [24]): inactive; Activity (Acinetobacter baumannii [25]): inactive; Activity (Acinetobacter baumannii [26]): inactive; Activity (Enterococcus faecium): inactive; Activity (Enterococcus faecalis): inactive; Activity (Staphylococcus aureus [27]): inactive; Activity (Staphylococcus aureus [28]): inactive; Activity (Bacillus subtilis): inactive

— ChEMBL document CHEMBL6078652, “Discovery of Sporachelins by Genome Mining of a Micromonospora Strain” (J Nat Prod, 2024)
